ChEMBL document CHEMBL4152218, “Novel hydrazide-hydrazone and amide substituted coumarin derivatives: Synthesis, cytotoxicity screening, microarray, radiolabeling and in vivo pharmacokinetic studies” (Eur J Med Chem, 2018)
Calls of active or inactive are those of the source.

Tests used:
HepG2 [1] = experiment: Effect on ARK1B15 gene expression in human HepG2 cells at IC50 after 48 hrs by microarray analysis; format: functional, cell-based
HepG2 [2] = experiment: Effect on C1orf186 gene expression in human HepG2 cells at IC50 after 48 hrs by microarray analysis; format: functional, cell-based
PANC-1 [3] = experiment: Effect on HEATR3 gene expression in human PANC1 cells at IC50 after 48 hrs by microarray analysis; format: functional, cell-based
PANC-1 [4] = experiment: Effect on NBPF20 gene expression in human PANC1 cells at IC50 after 48 hrs by microarray analysis; format: functional, cell-based
[5] = Inhibition of GST (unknown origin) using CDNB as substrate by spectrophotometric analysis; conditions: human
PANC-1 [6] = experiment: Effect on MATK gene expression in human PANC1 cells at IC50 after 48 hrs by microarray analysis; format: functional, cell-based
PANC-1 [7] = experiment: Effect on NSBP1 gene expression in human PANC1 cells at IC50 after 48 hrs by microarray analysis; format: functional, cell-based
HepG2 [8] = experiment: Effect on GOLPH4 gene expression in human HepG2 cells at IC50 after 48 hrs by microarray analysis; format: functional, cell-based
HepG2 [9] = experiment: Effect on GADD45A gene expression in human HepG2 cells at IC50 after 48 hrs by microarray analysis relative to control; format: functional
hTERT-BJ [10] = experiment: Cytotoxicity against hTERT-BJ cells at 25 uM after 48 hrs by resazurin dye-based fluorescence assay relative to control; format: cell-based; conditions: human
HepG2 [11] = experiment: Effect on GDF15 gene expression in human HepG2 cells at IC50 by SYBR green-dye based qRT-PCR analysis relative to beta-actin; format: functional
PANC-1 [12] = experiment: Effect on SDR16C5 gene expression in human PANC1 cells at IC50 after 48 hrs by microarray analysis; format: functional, cell-based
TERT-RPE1 = experiment: Cytotoxicity against hTERT-RPE1 cells at 25 uM after 48 hrs by resazurin dye-based fluorescence assay relative to control; format: cell-based; conditions: human, tert-rpe1, 48 h
HepG2 [13] = experiment: Effect on GDF15 gene expression in human HepG2 cells at IC50 after 48 hrs by microarray analysis relative to control; format: functional
HepG2 [14] = experiment: Effect on OR5P2 gene expression in human HepG2 cells at IC50 after 48 hrs by microarray analysis; format: functional, cell-based
PANC-1 [15] = experiment: Effect on TOP3A gene expression in human PANC1 cells at IC50 after 48 hrs by microarray analysis; format: functional, cell-based
PANC-1 [16] = experiment: Effect on CASP1 gene expression in human PANC1 cells at IC50 after 48 hrs by microarray analysis; format: functional, cell-based
PANC-1 [17] = experiment: Effect on THOC2 gene expression in human PANC1 cells at IC50 after 48 hrs by microarray analysis; format: functional, cell-based
PANC-1 [18] = experiment: Effect on NUCKS1 gene expression in human PANC1 cells at IC50 after 48 hrs by microarray analysis; format: functional, cell-based
PANC-1 [19] = experiment: Effect on CYP1A1 gene expression in human PANC1 cells at IC50 after 48 hrs by microarray analysis; format: ADME, cell-based; conditions: panc-1, 48 h
PANC-1 [20] = experiment: Effect on GSTM1 gene expression in human PANC1 cells at IC50 after 48 hrs by microarray analysis; format: functional, cell-based
HepG2 [21] = experiment: Effect on TUBB1 gene expression in human HepG2 cells at IC50 after 48 hrs by microarray analysis; format: functional, cell-based
[22] = Selectivity index, ratio of IC50 for hTERT-BJ cells to IC50 for human CCRF-CEM cells; format: toxicity; conditions: hTERT-BJ cells versus CCRF-CEM cells, read-out: Ratio IC50
PANC-1 [23] = experiment: Effect on RNF151 gene expression in human PANC1 cells at IC50 after 48 hrs by microarray analysis; format: functional, cell-based
PANC-1 [24] = experiment: Effect on ELP2P gene expression in human PANC1 cells at IC50 after 48 hrs by microarray analysis; format: functional, cell-based
PANC-1 [25] = experiment: Effect on TOP2A gene expression in human PANC1 cells at IC50 after 48 hrs by microarray analysis; format: functional, cell-based
PANC-1 [26] = experiment: Effect on HSPE1 gene expression in human PANC1 cells at IC50 after 48 hrs by microarray analysis; format: functional, cell-based
PANC-1 [27] = experiment: Effect on FEZ1 gene expression in human PANC1 cells at IC50 after 48 hrs by microarray analysis; format: functional, cell-based
HepG2 [28] = experiment: Effect on CASP7 gene expression in human HepG2 cells at IC50 after 48 hrs by microarray analysis; format: functional, cell-based
CCRF-CEM = experiment: Antiproliferative activity against human CCRF-CEM cells after 48 hrs by resazurin dye-based fluorescence assay; format: functional, cell-based
hTERT-BJ [29] = experiment: Cytotoxicity against hTERT-BJ cells at 12.50 uM after 48 hrs by resazurin dye-based fluorescence assay relative to control; format: cell-based; conditions: human, 12.5 µM
HepG2 [30] = experiment: Effect on NAV 2 gene expression in human HepG2 cells at IC50 after 48 hrs by microarray analysis; format: functional, cell-based
HepG2 [31] = experiment: Effect on CYP3A4 gene expression in human HepG2 cells at IC50 after 48 hrs by microarray analysis; format: ADME, cell-based; conditions: hepg2, 48 h
PANC-1 [32] = experiment: Effect on PVRL3 gene expression in human PANC1 cells at IC50 after 48 hrs by microarray analysis; format: functional, cell-based
PANC-1 [33] = experiment: Antiproliferative activity against human PANC1 cells after 48 hrs by resazurin dye-based fluorescence assay; format: functional, cell-based; conditions: PANC-1, 48 h
PANC-1 [34] = experiment: Effect on ZNF43 gene expression in human PANC1 cells at IC50 after 48 hrs by microarray analysis; format: functional, cell-based
HepG2 [35] = experiment: Effect on GADD45A gene expression in human HepG2 cells at IC50 by SYBR green-dye based qRT-PCR analysis relative to beta-actin; format: functional
PANC-1 [36] = experiment: Effect on TBC1D26 gene expression in human PANC1 cells at IC50 after 48 hrs by microarray analysis; format: functional, cell-based
PANC-1 [37] = experiment: Effect on YY1 gene expression in human PANC1 cells at IC50 after 48 hrs by microarray analysis; format: functional, cell-based
[38] = Selectivity index, ratio of IC50 for hTERT-RPE1 cells to IC50 for human HepG2 cells; format: toxicity; conditions: hTERT-RPE1 cells versus HepG2 cells, read-out: Ratio IC50
HepG2 [39] = experiment: Induction of apoptosis in human HepG2 cells assessed as increase in caspase-3/7 activity after 24 hrs by Caspase-Glo 3/7 luminescence assay; format: functional, cell-based
PANC-1 [40] = experiment: Effect on CTBP2 gene expression in human PANC1 cells at IC50 after 48 hrs by microarray analysis; format: functional, cell-based
HepG2 [41] = experiment: Effect on GST M1 gene expression in human HepG2 cells at IC50 after 48 hrs by microarray analysis; format: functional, cell-based
HepG2 [42] = experiment: Effect on CPB2 gene expression in human HepG2 cells at IC50 after 48 hrs by microarray analysis; format: functional, cell-based
PANC-1 [43] = experiment: Effect on LOC407835 gene expression in human PANC1 cells at IC50 after 48 hrs by microarray analysis; format: functional, cell-based
hTERT-BJ [44] = experiment: Cytotoxicity against hTERT-BJ cells after 48 hrs by resazurin dye-based fluorescence assay; format: cell-based; conditions: Homo sapiens
HepG2 [45] = experiment: Effect on OKL38 gene expression in human HepG2 cells at IC50 after 48 hrs by microarray analysis; format: functional, cell-based
HepG2 [46] = experiment: Effect on TOP2A gene expression in human HepG2 cells at IC50 by SYBR green-dye based qRT-PCR analysis relative to beta-actin; format: functional

O=C(N/N=C/c1cc2ccccc2nc1Cl)c1cc2cc(Br)ccc2oc1=O
3.63%: Activity (hTERT-BJ [29])
3.52: fold change (FC) (HepG2 [35])
5.45 µM: IC50 (PANC-1 [33])
7.45 µM: IC50 (CCRF-CEM)
3.51: fold change (FC) (HepG2 [11])
> 6.71: selectivity ratio [22]
Dose-dependent effect: inhibition (INH) [5]
4.56: fold change (FC) (HepG2 [13])
> 5.31: selectivity ratio [38]
19.41%: Activity (TERT-RPE1)
1.96: fold change (FC) (HepG2 [9])
Active: Activity (PANC-1 [19]) | Activity (HepG2 [31])
-1.54: fold change (FC) (HepG2 [46])
active: Activity (HepG2 [1]) | Activity (HepG2 [2]) | Activity (PANC-1 [3]) | Activity (PANC-1 [4]) | Activity (PANC-1 [6]) | Activity (PANC-1 [7]) | Activity (HepG2 [8]) | Activity (PANC-1 [12]) | Activity (HepG2 [14]) | Activity (PANC-1 [15]) | Activity (PANC-1 [16]) | Activity (PANC-1 [17]) | Activity (PANC-1 [18]) | Activity (PANC-1 [20]) | Activity (HepG2 [21]) | Activity (PANC-1 [23]) | Activity (PANC-1 [24]) | Activity (PANC-1 [25]) | Activity (PANC-1 [26]) | Activity (PANC-1 [27]) | Activity (HepG2 [28]) | Activity (HepG2 [30]) | Activity (PANC-1 [32]) | Activity (PANC-1 [34]) | Activity (PANC-1 [36]) | Activity (PANC-1 [37]) | Activity (HepG2 [39]) Dose-dependent effect | Activity (PANC-1 [40]) | Activity (HepG2 [41]) | Activity (HepG2 [42]) | Activity (PANC-1 [43]) | Activity (HepG2 [45])
3.47%: Activity (hTERT-BJ [10])
> 50 µM: IC50 (hTERT-BJ [44])
